Holding throughout (test): DTP human tumour cell line panel, 48 h
Experiment [1] concerns ACHN.
For experiment [2], the system named is RPMI-8226.
Experiment [3] concerns MDA-MB-231.
In experiment [4] the test system is Hs-578T.
Experiment [5] has as its system NCI-H226.
Experiment [6] concerns SNB-19.
For experiment [7], the system named is A549.
Experiment [8] deals with UO-31.
Experiment [9] has as its system OVCAR-5.
The test system of experiment [10] is MOLT-4.
The subject of experiment [11] is SK-OV-3.
The test system of experiment [12] is SK-MEL-28.
The subject of experiment [13] is M14.
The subject of experiment [14] is T47D.
Experiment [15] concerns EKVX.
In experiment [16] the test system is SF-539.
Experiment [17] relates to BT-549.
Experiment [18] has as its system KM12.
Experiment [19] concerns HCC 2998.
Experiment [20] has as its system CAKI-1.

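Tested at 5 concentrations; 48 h exposure; 96-well plates; endpoints linearly interpolated, else capped at highest concentration. The concentration for 50% growth inhibition is given as GI50.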 Calls of active or inactive are those of the source. Rule as the data show it: active = GI50 up to about 1.1 µM and inactive = higher.

Take `Cc1nc2ccccc2c(=O)n1NC(=O)c1ccc([N+](=O)[O-])cc1`: the GI50 in experiment [1], in experiment [2], in [3], in experiment [4], in [5] and in experiment [6] was > 100 µM (inactive) in each case. The GI50 in experiment [7], in [8], in experiment [9], in experiment [10], in experiment [11] and in experiment [12] was > 100 µM (inactive) in each case. Also, the GI50 in experiment [13], in experiment [14], in experiment [15], in experiment [16], in [17] and in experiment [18] was > 100 µM (inactive) in each case. For the same molecule, the GI50 in [19] was > 100 µM (inactive).
For the molecule `O=c1[nH]c2cccc([N+](=O)[O-])c2c(=O)n1-c1ccc(Cl)cc1`, the GI50 in experiment [20] is 2.64 µM (inactive); in [1], 8.51 µM (inactive); in [2] it was 13.6 µM (inactive); in experiment [3], 15.8 µM (inactive); in [4], 17 µM (inactive); in [5], 13.6 µM (inactive). Moreover, the GI50 in experiment [6] was 20 µM (inactive); in experiment [7], 12.4 µM (inactive); in experiment [9] it was 16.3 µM (inactive); in experiment [10] it was 19 µM (inactive); in [11], 14.3 µM (inactive); in [12], 13.4 µM (inactive). Moreover, the GI50 was 10.7 µM (inactive) in experiment [13]; 11 µM (inactive) in [14]; 10.8 µM (inactive) in experiment [15]; 12.3 µM (inactive) in experiment [16]; 10.7 µM (inactive) in [17]; 15.2 µM (inactive) in experiment [18]. Besides, the GI50 in experiment [19] was 14 µM (inactive).
Turning to `O=C(NCCCNCCCNC(=O)c1cc(-c2ccccc2)nc2ccccc12)c1cc(-c2ccccc2)nc2ccccc12`, the GI50 was 1.9 µM (inactive) in experiment [20]; 2.12 µM (inactive) in experiment [1]; 1.72 µM (inactive) in [2]; 2.01 µM (inactive) in experiment [3]; 2.35 µM (inactive) in experiment [4]; 1.69 µM (inactive) in experiment [5]. In addition, the GI50 in [6] is 1.72 µM (inactive); in experiment [7], 1.83 µM (inactive); in experiment [8], 1.83 µM (inactive); in [9], 1.87 µM (inactive); in experiment [11], 2.21 µM (inactive); in experiment [12], 1.77 µM (inactive). The GI50 in [13] was 1.79 µM (inactive); in [14], 2.02 µM (inactive); in experiment [15] it was 1.68 µM (inactive); in experiment [16], 2.47 µM (inactive); in [17] it was 10.2 µM (inactive); in experiment [18], 1.99 µM (inactive). Moreover, in [19], the GI50 was 0.834 µM (active).
Take `O=[N+]([O-])/C=C/c1cccc(F)c1`: the GI50 was 12.9 µM (inactive) in [20]; 2.54 µM (inactive) in experiment [1]; 1.48 µM (inactive) in experiment [2]; 16.4 µM (inactive) in experiment [3]; 3.12 µM (inactive) in experiment [4]; 2.25 µM (inactive) in [5]. Also, the GI50 was 11.7 µM (inactive) in experiment [6]; 4.16 µM (inactive) in experiment [7]; 2.54 µM (inactive) in experiment [8]; 14.3 µM (inactive) in experiment [11]; 2.28 µM (inactive) in experiment [12]; 2.74 µM (inactive) in [13]. Also, the GI50 in experiment [14] was 4.88 µM (inactive); in [15] it was 3.03 µM (inactive); in experiment [16] it was 4.45 µM (inactive); in experiment [17] it was 2.03 µM (inactive); in experiment [18], 2.95 µM (inactive); in experiment [19] it was 12 µM (inactive).
In the case of `O=C1NNC2(C(=O)N1)c1ccccc1-c1ccccc12`, the GI50 in [20], in experiment [1], in experiment [2], in [3], in [4] and in [5] was > 10 µM (inactive) each time. Further, the GI50 in [6], in experiment [7], in [8], in experiment [10], in [11] and in experiment [12] was > 10 µM (inactive) each time. Further, the GI50 is > 10 µM (inactive) in experiment [13]; 2.55 µM (inactive) in experiment [14]; 6.71 µM (inactive) in experiment [15]; > 10 µM (inactive) in experiment [16]; > 10 µM (inactive) in experiment [17]; > 10 µM (inactive) in [18]. Besides, the GI50 in experiment [19] was > 10 µM (inactive).
`COC(=O)c1c2c(cc3c1CC1(Cc4ccc(C(C)=O)cc4C1)C3)CCC2` (configuration not stated): the GI50 in experiment [20] is 53.3 µM (inactive); in experiment [1] it was 66.8 µM (inactive); in [2] it was 24.7 µM (inactive); in experiment [3], 20.4 µM (inactive); in [4], 28.4 µM (inactive); in [5], 67.1 µM (inactive). The GI50 in experiment [7] was 33.1 µM (inactive); in [8], 52.4 µM (inactive); in experiment [9], > 100 µM (inactive); in experiment [10], 21 µM (inactive); in experiment [11], 63.2 µM (inactive); in [12], 63.5 µM (inactive). Besides, the GI50 in [14] was 31.1 µM (inactive); in [15] it was 42.7 µM (inactive); in experiment [16] it was 85.3 µM (inactive); in experiment [17] it was 56.8 µM (inactive); in experiment [18], 17.6 µM (inactive); in experiment [19], > 10 µM (inactive).
On to `CCN1C=C/C(=C\C=C\c2cc[n+](CC)c3ccccc23)c2ccccc21`, for which the GI50 was 11.9 µM (inactive) in [1]; 3.07 µM (inactive) in [2]; 3.31 µM (inactive) in experiment [3]; 4.02 µM (inactive) in experiment [4]; 3.36 µM (inactive) in experiment [5]; 4.17 µM (inactive) in [6]. Moreover, the GI50 was 3.77 µM (inactive) in experiment [7]; 15.2 µM (inactive) in experiment [8]; 4.12 µM (inactive) in [9]; 3.2 µM (inactive) in experiment [10]; 4.66 µM (inactive) in experiment [11]; 8.99 µM (inactive) in experiment [12]. Besides, the GI50 in experiment [13] was 5.02 µM (inactive); in experiment [14], 5.93 µM (inactive); in experiment [15], 18.9 µM (inactive); in [16], 3.39 µM (inactive); in experiment [17], 20.7 µM (inactive); in [18], 3.42 µM (inactive). For the same molecule, in experiment [19], the GI50 was 7.24 µM (inactive).
Consider `COC(=O)[C@]12CSC[C@H]1C[C@H](c1ccc(N(C)C)cc1)N2`, for which the GI50 in [20] is > 100 µM (inactive); in [1], > 100 µM (inactive); in experiment [2], > 31.6 µM (inactive); in experiment [3] it was > 100 µM (inactive); in experiment [4], > 100 µM (inactive); in [5] it was > 100 µM (inactive). The GI50 in [6], in experiment [7], in experiment [8], in [9], in [11] and in experiment [12] was > 100 µM (inactive) throughout. Also, the GI50 in [13] is > 100 µM (inactive); in [14], > 100 µM (inactive); in [15] it was > 73.3 µM (inactive); in [16], > 100 µM (inactive); in [17], > 100 µM (inactive); in experiment [18] it was > 100 µM (inactive). The GI50 in experiment [19] is > 100 µM (inactive).
As for `Cc1ccc(-c2nc3cc(Cl)ccc3[nH]2)cc1`, the GI50 in experiment [20] is > 100 µM (inactive); in experiment [1], 97.5 µM (inactive); in experiment [2], 46.8 µM (inactive); in experiment [3], > 100 µM (inactive); in experiment [4] it was > 100 µM (inactive); in experiment [5], > 100 µM (inactive). The GI50 in [6] was > 100 µM (inactive); in [7], 83.4 µM (inactive); in experiment [8], > 100 µM (inactive); in experiment [10], 32.4 µM (inactive); in experiment [11], > 100 µM (inactive); in experiment [12], > 100 µM (inactive). Moreover, the GI50 in experiment [13] is > 100 µM (inactive); in experiment [14] it was > 100 µM (inactive); in experiment [15], > 100 µM (inactive); in experiment [16], > 100 µM (inactive); in [17], > 100 µM (inactive); in experiment [18], 46.8 µM (inactive). The GI50 in [19] was 53.2 µM (inactive).
Take `O=C1OC(C(O)CO)C(C(O)CO)OC1=O` (configuration not stated): the GI50 in experiment [20], in [1], in experiment [2], in experiment [3], in experiment [4] and in experiment [5] was > 10 µM (inactive) throughout. Further, the GI50 in experiment [6], in experiment [7], in experiment [8], in [9], in experiment [10] and in experiment [12] was > 10 µM (inactive) each time. Moreover, the GI50 in experiment [13], in experiment [14], in experiment [15], in [16], in [17] and in [18] was > 10 µM (inactive) in each case. In experiment [19], the GI50 is > 10 µM (inactive).
As for `O=C(O)C(Cc1c[nH]c2ccccc12)N1C(=O)c2ccccc2C1=O` (configuration not stated), the GI50 in experiment [20], in experiment [1], in experiment [2], in [3], in experiment [4] and in experiment [5] was > 100 µM (inactive) each time. Moreover, the GI50 in experiment [6], in [7], in [8], in experiment [9], in experiment [11] and in [12] was > 100 µM (inactive) throughout. Besides, the GI50 in experiment [13], in experiment [14], in experiment [15], in [16], in [17] and in [18] was > 100 µM (inactive) in each case. The GI50 in experiment [19] is > 100 µM (inactive).

Broadly, the GI50 is the concentration at which growth is held to half of that of the control.

The record behind these values is ChEMBL document CHEMBL1201862, “PubChem BioAssay data set” (2004).
